Patent US6599944B1, “Ophtalmic compound with extended dwell time on the eye” (Bausch & Lomb Incorporated, priority 1996, dated 2003)

System: eye of experimental rabbits
Assay: long-term (5 weeks) eye tolerability test of preserved ophthalmic gel compositions
Assay type: in vivo, rabbits (Charles River)
Description: Long-term tests were carried out on experimental rabbits (Charles River) with the compositions of Example 1 and 2. In parallel, comparative tests were carried out with a corresponding control group in which the compositions employed were in every respect the same but differed with regard to the preservative. Instead of benzyllauryldimethylammonium chloride, on the one hand benzalkonium chloride was used in the same concentration, and on the other hand, thiomersal (standard concentration) =40 μg/g was used.

[1] = Carbopol gel, benzalkonium chloride in same concentration as Examples 1 and 2, thiomersal 40 μg/g

C[CH2][Hg][S]c1ccccc1C(=O)[O-].[Na+] [thiomersal]
damage to the tissue of the eye at the end of the test [1]: in some cases also damage to the eye | irritation in the eye at the end of the test [1]: severe irritation | rabbits showing severe irritation at the end of the test (control groups with other preservative): seven of eight
